{"source": "patent US7470683B2", "about": "“Tetracyclic compounds” (Les Laboratoires Servier, priority 2006, dated 2008)", "key": {"[1]": {"biological_target": "T1, human dopamine D2 receptor (Homo sapiens, UniProt P14416)", "T1 construct": "expressed in transfected cells; membranes", "T1 sequence (P14416 whole entry)": "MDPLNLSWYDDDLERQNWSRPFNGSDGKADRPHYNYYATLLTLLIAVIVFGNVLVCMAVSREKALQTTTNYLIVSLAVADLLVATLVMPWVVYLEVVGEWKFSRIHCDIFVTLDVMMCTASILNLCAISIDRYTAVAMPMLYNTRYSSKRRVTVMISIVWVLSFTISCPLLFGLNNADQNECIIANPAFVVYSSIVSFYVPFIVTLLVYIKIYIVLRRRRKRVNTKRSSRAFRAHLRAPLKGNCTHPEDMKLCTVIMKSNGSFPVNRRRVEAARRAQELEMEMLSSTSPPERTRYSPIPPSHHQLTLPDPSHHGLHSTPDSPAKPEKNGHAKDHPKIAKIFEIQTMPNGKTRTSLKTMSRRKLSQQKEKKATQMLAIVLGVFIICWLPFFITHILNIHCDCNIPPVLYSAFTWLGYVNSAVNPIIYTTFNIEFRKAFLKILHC", "experiment": "Human D2 receptor binding study ([125I]-iodosulpride, CHO cell membranes)", "details": "[125I]-iodosulpride 0.1 nM, read-out: pKi hD2 (converted)", "protocol": "(§1) CHO (Chinese Hamster Ovary) cells are stably transfected with the gene encoding the human dopamine D2 or D3 receptor, in accordance with methods known from the literature. The native cells are deficient in the enzyme DHFR (DiHydroFolate Reductase). […] The transfections are carried out using Lipofectin (Gibco). The CHO cells co-transfected with the human D2 receptor and the phleomycin resistance gene are selected for their resistance to the presence of that antibiotic in the culture medium. The cells transfected with the human D3 receptor are selected, in a medium lacking hypoxanthine/thymidine, in the presence of methotrexate. The compositions of the culture media used are: for CHO-D2, DMEM (Dulbecco's Modified Eagle Medium) supplemented with 10% foetal calf serum and hypoxanthine/thymidine; and for CHO-D3, DMEM supplemented with 10% dialysed foetal calf serum. The cells are harvested at confluence and the membranes are then prepared.\nAfter a few minutes in the presence of 0.2% trypsin, the cells are collected and centrifuged at 2,000 g for 5 minutes. The cell mass, which is re-suspended in 10 mM Tris-HCl buffer pH 7.5 containing 5 mM MgSO4, is then homogenised using a Polytron®. The homogenate is then centrifuged at 50,000 g for 15 minutes, and the sediment is re-suspended by gentle sonication in an incubation buffer having the composition: 50 mM Tris-HCl pH 7.5 containing 120 mM NaCl, 5 mM KCl, 2 mM CaCl2, 5 mM MgCl2. The membranes are then divided into aliquots and stored at −80° C. until the day of the experiment.\nThe concentration ranges of each compound include at least seven points determined in triplicate. Each experiment is repeated at least twice.\nThe incubation, which lasts for thirty minutes at 30° C., is terminated by rapid filtering through a Brandle apparatus, followed by three consecutive rinsings with Tris-HCl buffer pH 7.4 containing 120 mM NaCl. The filters are collected and then subjected to counting using a gamma counter.\nThe results are expressed in the form of pKi (pKi=−logKi)."}, "[2]": {"biological_target": "T2, human dopamine D3 receptor (Homo sapiens, UniProt P35462)", "T2 construct": "expressed in transfected cells; membranes", "T2 sequence (P35462 whole entry)": "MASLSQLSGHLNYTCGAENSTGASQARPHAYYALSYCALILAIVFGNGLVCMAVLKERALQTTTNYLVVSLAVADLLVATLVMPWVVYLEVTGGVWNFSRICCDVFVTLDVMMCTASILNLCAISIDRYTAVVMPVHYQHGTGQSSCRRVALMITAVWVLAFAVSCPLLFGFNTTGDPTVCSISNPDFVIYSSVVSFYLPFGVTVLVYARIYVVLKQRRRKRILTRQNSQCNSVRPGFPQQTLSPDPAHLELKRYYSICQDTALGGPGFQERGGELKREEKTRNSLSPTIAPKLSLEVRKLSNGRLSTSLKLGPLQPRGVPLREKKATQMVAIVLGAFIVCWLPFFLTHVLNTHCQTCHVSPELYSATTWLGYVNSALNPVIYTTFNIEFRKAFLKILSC", "experiment": "Human D3 receptor binding study ([125I]-iodosulpride, CHO cell membranes)", "details": "[125I]-iodosulpride 0.2 nM, read-out: pKi hD3 (converted)", "protocol": "as §1\nAfter a few minutes in the presence of 0.2% trypsin, the cells are collected and centrifuged at 2,000 g for 5 minutes. The cell mass, which is re-suspended in 10 mM Tris-HCl buffer pH 7.5 containing 5 mM MgSO4, is then homogenised using a Polytron®. […]\nThe concentration ranges of each compound include at least seven points determined in triplicate. […]"}, "[3]": {"test_system": "rats having a unilateral lesion of the Substantia nigra", "experiment": "Rotations induced by dopaminergic agonists in rats having a unilateral 6-OH-DA lesion of the Substantia nigra", "type": "in vivo, rat", "details": "for Contralateral rotations mean ± s.e.m.: recorded for one hour, carrier 53.8 ± 12.8"}, "rat [4]": {"test_system": "rat", "experiment": "Forced swimming test in the rat (antidepressive properties)", "type": "in vivo", "details": "for Immobility (sec) mean ± s.e.m.: 30 min before 5-min test, carrier 174.3 ± 9.1", "excerpt": "The forced swimming test (Porsolt R. et al, Eur. J. Pharmacol., 1978, 47, 379-91) is a behavioural test which comprises inducing a state of “despair” in the rat, by placing the naive animal in an enclosure full of water, from which it cannot escape, for a period of fifteen minutes. For the first five to ten minutes, the rat struggles vigorously but finally adopts an immobile posture during the last part of the test. Placed in the same enclosure on the following day, the animal remains immobile for most of the test (5 minutes' duration). Antidepressants reduce the duration of immobility of the rat during the test.\nThe experiment is carried out over two days, with a 24-hour interval, on rats having an average weight of 170 g, housed the day before in individual cages, with free access to food and drink.\nOn the first day, each rat is placed for fifteen minutes in a glass cylinder (20 cm diameter×40 cm high) filled to a height of 15 cm with water maintained at 25° C. On the second day, the animal is again placed in a cylinder for a period of five minutes; the total period of immobility (in seconds) of the rat is measured. The product or the solvent is administered to the animal thirty minutes before the beginning of the test. The effect of the products is statistically evaluated by analysis of variance over repeated measurements, followed by a Dunnett's test for comparison of the effects of different doses with the effect of the carrier (distilled water)."}, "[5]": {"test_system": "presynaptic dopaminergic autoreceptor", "experiment": "Presynaptic dopaminergic autoreceptor activation: unitary extracellular electrical activity in the ventral tegmentum area of the rat", "type": "in vivo", "details": "cumulative doses, relative to basal activity = 100%, mean ± s.e.m., n = 5", "protocol": "Test Recording the Unitary Extracellular Electrical Activity in the Ventral Tegmentum Area of the Rat\nAdministration of a dopaminergic agonist decreases neuron discharge frequency in dose-dependent manner. This effect is reversed by haloperidol, a dopaminergic antagonist.\nThe rats are anaesthetised using chloral hydrate (400 mg/kg, i.p.) and placed in a stereotactic apparatus (Unimécanique, France) after catheterisation of the femoral vein. The level of anaesthesia is maintained by i.p. administration of chloral hydrate every hour; rectal temperature is held at 37±1° C. by means of a thermostatically controlled heated blanket. A tungsten microelectrode (10 MΩ, 1 μm) is advanced, using an electronic microdrive (Unimécanique, France), into the ventral tegmentum area (AP: −5.5/bregma; L: 0.7; H: 7.0-8.5/dura; Paxinos and Watson atlas, 1986). The potentials of dopaminergic cells are recognised by their morphology (triphasic potentials +/−/+, of a duration greater than 3 msec), their discharge rhythm, whether regular or in bursts of decreasing amplitude, and their discharge frequency, which is from 2 to 8 Hz. A single cell per animal is used for recording.\nAfter a period ≧5 minutes (basal activity) and an initial injection of carrier (distilled water to which a few drops of dilute lactic acid have been added; pH adjusted to 5 using 1N NaOH), the products of the invention are administered intravenously in cumulatively increasing doses at intervals of 2-3 minutes.\nData acquisition is performed by the Spike2 software package (Cambridge Electronic Design, England). The discharge frequency is measured over one minute at the maximum change between each injection and is expressed as the percentage change with respect to the basal activity (averaged over the 5 minutes preceding the first treatment), which is defined as 100%. The effect of the products is statistically evaluated by analysis of variance over repeated measurements, followed by a Dunnett's test for comparison of the effects of different doses with the effect of the carrier (distilled water)."}, "rat [6]": {"test_system": "rat", "experiment": "Ultrasonic vocalisation test in the rat (anxiolytic properties)", "type": "in vivo", "details": "for Duration of ultrasonic vocalisations (s) mean ± s.e.m.: ten-minute recording, carrier 254.3 ± 42.1", "excerpt": "When a rat is placed in an environment previously associated with an unpleasant experience (electric shocks to the paws), its anxiety is shown by the emission of inaudible cries (or ultrasonic vocalisations).\nStandard boxes (Coulbourn Instruments), placed in sound-attenuating ventilated enclosures, are provided with a floor composed of electrifiable metal bars (shock generator and scrambler, Med Associates Inc) and with a microphone located in the centre of the ceiling. The ultrasounds are converted into an audible range (bat detector, Buitenbedrijf). The signals modified in that manner are filtered and then processed (RTS software, Engineering Design). The spectrograms obtained are recorded on DAT tapes.\nMale rats of the Wistar strain, weighing 180-200 g on their arrival, are housed in cages of four with free access to food and water, from five days before the start of the study until its end. The procedure employed is divided up into three successive stages separated by 24 hours and called training, selection and test. During the training session, the animals are placed singly in the boxes, where they receive six electric shocks (0.8 mA, 8 s) randomly spaced over a period of seven minutes. Selection comprises placing each animal in a box for two minutes, where they receive a single shock, and putting them back in the box thirty minutes later for a ten-minute session of recording the ultrasonic vocalisations; those animals whose vocalisations last less than 90 seconds are excluded from the remainder of the experiment. The test phase proceeds in a similar manner to the selection stage, with the products or the carrier additionally being administered at the end of the two-minute session. The effect of the products is statistically evaluated by analysis of variance over repeated measurements, followed by a Dunnett's test for comparison of the effects of different doses with the effect of the carrier (distilled water)."}}, "data": [{"smiles": "CCCN1CCO[C@@H]2c3cc4c(cc3CC[C@H]21)COC4=O", "note": "[Example 4, (4aR,11bR)-4-Propyl-2,3,4,4a,5,6,8,11b-octahydro-10H-furo[3′,4′:6,7]-naphtho[1,2-b][1,4]oxazin-10-one]", "values": [{"measurement": "Ki", "setting": "[1]", "result": 2000, "unit": "nM"}]}, {"smiles": "CCCN1CCO[C@@H]2c3cc4c(cc3CC[C@H]21)CCOC4=O", "note": "[Example 5, (4aR,12bR)-4-Propyl-3,4,4a,5,6,8,9,12b-octahydro-2H,11H-pyrano-[4′,3′:6,7]naphtho[1,2-b][1,4]oxazin-11-one]", "values": [{"measurement": "Ki", "setting": "[2]", "result": 126, "unit": "nM"}, {"measurement": "Ki", "setting": "[1]", "result": 1580, "unit": "nM"}]}, {"smiles": "CCCN1CCO[C@@H]2c3cc4c(=O)[nH]ccc4cc3CC[C@H]21", "note": "[Example 8, (4aR,12bR)-4-Propyl-2,3,4,4a,5,6,10,12b-octahydro-11H-isoquino-[6,7-h][1,4]benzoxazin-11-one]", "values": [{"measurement": "Ki", "setting": "[1]", "result": 1260, "unit": "nM"}]}, {"smiles": "CN1CCc2cccc3c2[C@H]1Cc1ccc(O)c(O)c1-3", "note": "[Apomorphine, apomorphine, reference compound]", "values": [{"measurement": "Contralateral rotations mean ± s.e.m.", "setting": "[3]; 0.02 mg/kg s.c.", "result": "497.2 ± 91.4"}]}, {"smiles": "CCCN1CCO[C@@H]2c3cc4c(cc3CC[C@H]21)CCNC4=O", "note": "[Example 6, (4aR,12bR)-4-Propyl-2,3,4,4a,5,6,8,9,10,12b-decahydro-11H-isoquino-[6,7-h][1,4]benzoxazin-11-one]", "values": [{"measurement": "Ki", "setting": "[1]", "result": 794, "unit": "nM"}]}, {"smiles": "CCCN1CCO[C@@H]2c3cc4c(cc3CC[C@H]21)CNC4=O", "note": "(single isomer, unassigned) [Example 2]", "values": [{"measurement": "Immobility (sec) mean ± s.e.m.", "setting": "rat [4]; 0.02 mg/kg s.c.", "result": "159.4 ± 7.9", "unit": "s"}, {"measurement": "Immobility (sec) mean ± s.e.m.", "setting": "rat [4]; 0.04 mg/kg s.c.", "result": "122.7 ± 21.2", "unit": "s"}, {"measurement": "Immobility (sec) mean ± s.e.m.", "setting": "rat [4]; 0.08 mg/kg s.c.", "result": "22.03 ± 5.8", "unit": "s"}, {"measurement": "Effect on period of immobility (in words)", "setting": "rat [4]; s.c., rat", "result": "reduces the period of immobility of the animal in dose-dependent manner"}, {"measurement": "Neuron discharge frequency", "setting": "[5]; 0.125 μg/kg i.v.", "result": "91.8 ± 5.2", "unit": "%"}, {"measurement": "Neuron discharge frequency", "setting": "[5]; 0.25 μg/kg i.v.", "result": "79.9 ± 5.9", "unit": "%"}, {"measurement": "Neuron discharge frequency", "setting": "[5]; 0.5 μg/kg i.v.", "result": "66.3 ± 5.9", "unit": "%"}, {"measurement": "Neuron discharge frequency", "setting": "[5]; 1.0 μg/kg i.v.", "result": "42.0 ± 7.3", "unit": "%"}, {"measurement": "Neuron discharge frequency", "setting": "[5]; 2.0 μg/kg i.v.", "result": "10.8 ± 8.7", "unit": "%"}, {"measurement": "Neuron discharge frequency", "setting": "[5]; 4.0 μg/kg i.v.", "result": "2.3 ± 2.3", "unit": "%"}, {"measurement": "Neuron discharge frequency", "setting": "[5]; 8.0 μg/kg i.v.", "result": "0.0 ± 0.0", "unit": "%"}, {"measurement": "Contralateral rotations mean ± s.e.m.", "setting": "[3]; 0.00063 mg/kg s.c.", "result": "157.4 ± 32.1"}, {"measurement": "Contralateral rotations mean ± s.e.m.", "setting": "[3]; 0.0025 mg/kg s.c.", "result": "337.3 ± 48.3"}, {"measurement": "Contralateral rotations mean ± s.e.m.", "setting": "[3]; 0.01 mg/kg s.c.", "result": "553.8 ± 138.3"}, {"measurement": "Dose from which the product is active in the rotation test", "setting": "[3]; s.c.", "result": "≥ 2.5", "unit": "µg/kg"}, {"measurement": "Duration of ultrasonic vocalisations (s) mean ± s.e.m.", "setting": "rat [6]; 0.0025 mg/kg s.c.", "result": "274.0 ± 59.0", "unit": "s"}, {"measurement": "Duration of ultrasonic vocalisations (s) mean ± s.e.m.", "setting": "rat [6]; 0.04 mg/kg s.c.", "result": "28.0 ± 5.6", "unit": "s"}, {"measurement": "Duration of ultrasonic vocalisations (s) mean ± s.e.m.", "setting": "rat [6]; 0.63 mg/kg s.c.", "result": "22.0 ± 3.2", "unit": "s"}, {"measurement": "Effect on duration of vocalisations (in words)", "setting": "rat [6]; doses of 0.04 and 0.63 mg/kg s.c.", "result": "substantial reduction in the duration of vocalisations"}]}]}
